One test has as its target canine TRPM8 (Canis lupus familiaris, UniProt Q1A7N1). As to the kind of experiment: In Vitro Canine TRPM8 Functional Assay (Ca2+ fluorescence, icilin activation). It is filed as cell-based. To be noted: for IC50: HEK293 cells stably expressing canine TRPM8, icilin activation, eight-point dose-response, read-out: IC50. The method in brief:
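HEK293 cells stably expressing canine TRPM8 loaded with Calcium 3 dye; compound added and Ca2+ fluorescence monitored 5 min before icilin at a final level giving ~80% maximal response, read on FLIPR or FDSS. EC50 or IC50 from eight-point dose-response, quadruplicate wells per point.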

Test [1] relates to Male Sprague Dawley rats. As to the kind of experiment: Inhibition of Icilin-Induced "Wet-Dog" Shakes in Rats. It is filed as in vivo, rat. Conditions: Rattus norvegicus, po, 2 h, Water, 120 min pre-icilin, Na salt form. Here is the method: Male Sprague Dawley rats (220-450 g, Charles River Labs, n=6-9/treatment) were used to evaluate the ability of selected compounds of the formula (I) to block icilin-induced “wet-dog” shakes (WDS). Compounds of the formula (I) were administered in an appropriate vehicle, such as hydroxypropyl-β-cyclodextrin (HPβCD), methocellulose, 10% Solutol, or H2O, or the like, by the appropriate route, i.p. or p.o., 30-120 minutes before icilin. Icilin was administered in PEG-400 or 10% solutol/H2O, at 1.0 or 3.0 mg/kg, i.p. and spontaneous “wet-dog” shakes were counted 10-20 minutes post-icilin. Results are presented as a percent inhibition of shakes, which was calculated as [1-(test compound WDS count/vehicle WDS count)]×100.

The subject of the next test is Sprague-Dawley rats. As to the kind of experiment: CFA-Induced Paw Radiant Heat Hypersensitivity. It is filed as in vivo, rat. Conditions: dose 10 p.o., HPbCD, treatment time 100 min, Na salt form. On the procedure: Intraplantar injection of complete Freund's adjuvant (CFA) in rodents results in a long-lasting inflammatory reaction, characterized by a pronounced hypersensitivity to both thermal and mechanical stimuli. This hypersensitivity peaks between 24-72 hours following injection and can last for several weeks. To assess whether test compounds of the formula (I) reverse established hypersensitivity, a 100 μL intraplantar injection of CFA (suspended in a 1:1 emulsion of saline and heat-killed Mycobacterium tuberculosis in mineral oil) can be injected into a single hind paw of Sprague-Dawley rats (typically males ranging from 150-350 g). This paradigm also may be conducted with a multiple dosing or a prophylactic dosing regime designed to alter the course of hyperalgesia development. This test predicts the analgesic, anti-allodynic and antihyperalgesic effect of numerous effective clinical agents, including acetaminophen, NSAIDS such as aspirin and ibuprofen, and opioids, such as morphine.
Each rat is placed in a test chamber on a warm glass surface and allowed to acclimate for approximately 10 minutes. A radiant thermal stimulus (beam of light) is then focused through the glass onto the plantar surface of each hind paw in turn. The thermal stimulus is automatically shut off by a photoelectric relay when the paw is moved or when the cut-off time is reached (20 seconds for radiant heat at […]). An initial (baseline) response latency to the thermal stimulus is recorded for each animal prior to the injection of CFA. Twenty-four hours following intraplantar CFA injection, the response latency of the animal to the thermal stimulus is then re-evaluated and compared to the animal's baseline response time. […] Immediately following the post-CFA latency assessment, test compound or vehicle (usually Solutol, hydroxypropyl methylcellulose, hydroxypropyl beta-cyclodextrin or PEG-400) is administered i.p. or p.o. to rats. Post-compound treatment withdrawal latencies are assessed at fixed time intervals, typically 30, 60 and 120 minutes. The percent reversal (% R) of hypersensitivity is calculated according to the following formula: % Reversal=(Treatment Response-CFA Response)/(Baseline Response-CFA Response)×100.

For test [2], the system named is Male Sprague Dawley rats. As to the kind of experiment: Chronic Constriction Injury (CCI)-Induced Model of Neuropathic Pain, Acetone-Induced Hypersensitivity. It is filed as in vivo, rat. Conditions: Rattus norvegicus; for inhibition in vivo at 3 mg/kg: 3 mg/kg p.o.; for inhibition in vivo at 10 mg/kg: 10 mg/kg p.o.
The subject of test [3] is Male Sprague Dawley rats. As to the kind of experiment: Rightward Shift of Icilin Dose Effect Curve in Rats. Format: in vivo. Conditions: Rattus norvegicus, ip; icilin i.p., wet-dog shakes, no pretreatment; read-out: Icilin ED50, mg/kg, i.p., no pretreatment. On the procedure:
Male Sprague Dawley rats (200-400 g, Charles River Labs, n=6-9/treatment) were administered icilin in a suitable vehicle (e.g. PEG-400, 10% Solutol) at 0.1-30 mg/kg, i.p. Spontaneous “wet-dog” shakes were counted 10-20 minutes post-icilin in order to generate a icilin dose-effect curve. A compound of the present invention was administered orally in hydroxypropyl-β-cyclodextrin 60 minutes before icilin challenge to assess the compound's ability to inhibit spontaneous “wet-dog” shakes (WDS) produced by a range of icilin doses. The ED50 of the icilin dose-effect curve generated in the presence of TRPM8 antagonist may be compared to that generated in the presence of vehicle to determine the magnitude of rightward shift as shown below in Table 7.

Test [4] has as its system Male Sprague Dawley rats. As to the kind of experiment: Reversal of Icilin-Induced Behaviors in Rats. It is filed as in vivo. To be noted: Rattus norvegicus, po, 1 h, 1 h post-icilin. On the procedure:
Male Sprague Dawley rats (225-450 g, Charles River Labs, n=4-6/treatment) were used to evaluate the ability of selected compounds of the formula (I) to reverse icilin-induced “wet-dog” shakes. Icilin was administered in PEG-400 or 10% solutol/H2O, at 1.0 or 3.0 mg/kg, i.p. and spontaneous “wet-dog” shakes (WDS) were counted 10-20 minutes post-icilin. […] Results are presented as a percent inhibition of shakes, which was calculated as [1-(test compound WDS count/vehicle WDS count)]×100.

The mark [5] stands for this setting: po, 2 h, Water, pretreatment 2 hr, Na salt form, read-out: Percent Inhibition.
Setting [6] is: po, 1 h, 10% Solutol, pretreatment 1 hr, CO2H form, read-out: Percent Inhibition.

Chain of canine TRPM8 (Q1A7N1 1-1104): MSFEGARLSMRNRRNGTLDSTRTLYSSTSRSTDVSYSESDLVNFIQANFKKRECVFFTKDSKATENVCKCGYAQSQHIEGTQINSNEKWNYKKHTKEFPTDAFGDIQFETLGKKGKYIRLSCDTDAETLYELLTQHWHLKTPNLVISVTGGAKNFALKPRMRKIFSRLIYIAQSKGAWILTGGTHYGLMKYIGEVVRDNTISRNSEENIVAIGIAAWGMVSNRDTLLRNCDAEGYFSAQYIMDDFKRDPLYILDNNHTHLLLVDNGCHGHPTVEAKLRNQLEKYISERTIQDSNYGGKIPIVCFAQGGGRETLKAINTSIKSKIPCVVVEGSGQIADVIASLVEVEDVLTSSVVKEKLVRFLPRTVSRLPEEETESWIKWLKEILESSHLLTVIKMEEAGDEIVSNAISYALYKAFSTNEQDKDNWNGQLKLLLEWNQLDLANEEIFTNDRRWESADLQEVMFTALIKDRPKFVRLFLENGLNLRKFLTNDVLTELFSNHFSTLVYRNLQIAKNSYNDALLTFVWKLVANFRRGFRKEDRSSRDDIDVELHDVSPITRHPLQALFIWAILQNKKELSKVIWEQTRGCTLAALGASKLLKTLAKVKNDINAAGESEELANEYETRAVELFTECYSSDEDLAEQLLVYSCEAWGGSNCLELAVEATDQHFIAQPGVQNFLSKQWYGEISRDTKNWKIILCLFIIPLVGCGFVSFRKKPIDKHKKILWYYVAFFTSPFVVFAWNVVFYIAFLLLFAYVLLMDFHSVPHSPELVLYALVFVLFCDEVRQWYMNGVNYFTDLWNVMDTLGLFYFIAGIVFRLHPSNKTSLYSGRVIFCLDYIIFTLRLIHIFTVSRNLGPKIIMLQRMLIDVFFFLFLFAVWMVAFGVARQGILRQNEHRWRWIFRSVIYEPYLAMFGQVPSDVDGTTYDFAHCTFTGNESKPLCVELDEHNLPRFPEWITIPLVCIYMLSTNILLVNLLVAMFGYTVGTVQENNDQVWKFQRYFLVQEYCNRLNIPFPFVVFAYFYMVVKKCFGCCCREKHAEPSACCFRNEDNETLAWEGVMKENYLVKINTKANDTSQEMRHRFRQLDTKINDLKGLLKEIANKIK

Consider `CC(C)(O)c1c(N(Cc2ccc(F)c(C(F)(F)F)c2)S(=O)(=O)c2ccc(C(=O)O)cc2)sc2ccccc12` [Compound 361, N-(4-Fluoro-3-trifluoromethylbenzyl)-N-(3-(1-hydroxy-1-methyl-ethyl)-benzo[b]thiophen-2-yl)-4-carboxy-benzenesulfonamide], for which, on canine TRPM8, the IC50 came to 0.8 nM. Further, on canine TRPM8 (compound at 0.2 μM, canine TRPM8, icilin activation, read-out: % Inh @ 0.2), the inhibition at 0.2 µM was determined as 93%. In addition, the ED50 in the test on Male Sprague Dawley rats [1] was found to be 4.5 mg/kg; in the test with Male Sprague Dawley rats [2] (po, Water, pretreatment 2 hr, Na salt form), 13 mg/kg. For the same molecule, the “Percent Reversal” value with Sprague-Dawley rats was 28%. Further, the inhibition in vivo at 3 mg/kg with Male Sprague Dawley rats [2] (setting [5]) was determined as 9%. Further, the inhibition in vivo at 10 mg/kg in the test on Male Sprague Dawley rats [2] (setting [5]) was 17%. Also, the inhibition in vivo at 30 mg/kg in the test on Male Sprague Dawley rats [2] (po, 2 h, 30 mg/kg p.o., Water, pretreatment 2 hr, Na salt form, read-out: Percent Inhibition) was determined as 91%; in the test on Male Sprague Dawley rats [2] (po, 4 h, 30 mg/kg p.o., Water, pretreatment 4 hr, Na salt form, read-out: Percent Inhibition) it was 74%.
In the case of `O=C1NC(c2cccc([N+](=O)[O-])c2)=CCN1c1ccccc1O` [Icilin, reference compound], the ED50 with Male Sprague Dawley rats [3] was determined as 0.75 mg/kg.
For `O=S(=O)(c1ccccc1)N(Cc1ccc(F)c(C(F)(F)F)c1)c1sc2ccccc2c1Br` [Compound 177, N-(3-Bromo-benzo[b]thiophen-2-yl)-N-(4-fluoro-3-trifluoromethyl-benzyl)-benzenesulfonamide], the IC50 on canine TRPM8 was determined as 5.7 nM. For the same molecule, the inhibition at 0.5 µM on canine TRPM8 (compound at 0.5 μM, canine TRPM8, icilin activation, read-out: % Inh @ 0.5) stood at 96%. For the same molecule, the inhibition in vivo at 3 mg/kg with Male Sprague Dawley rats [4] (3 mg/kg p.o.) was 15%; in the test on Male Sprague Dawley rats [2] (setting [6]), 23%. Besides, the inhibition in vivo at 10 mg/kg with Male Sprague Dawley rats [4] (10 mg/kg p.o.) worked out at 53%; in the test with Male Sprague Dawley rats [2] (setting [6]) it was 49%. In the test on Male Sprague Dawley rats [4] (16.6 mg/kg p.o.), the inhibition in vivo at 16.6 mg/kg was 54%. In addition, the inhibition in vivo at 30 mg/kg stood at 66% with Male Sprague Dawley rats [4] (30 mg/kg p.o.); 60% in the test with Male Sprague Dawley rats [2] (ip, 3 h, 30 mg/kg i.p., 10% Solutol, pretreatment 3 hr, CO2H form, read-out: Percent Inhibition); 46% with Male Sprague Dawley rats [2] (po, 1 h, 30 mg/kg p.o., 10% Solutol, pretreatment 1 hr, CO2H form, read-out: Percent Inhibition). Moreover, the inhibition in vivo at 100 mg/kg was 52% in the test with Male Sprague Dawley rats [4] (100 mg/kg p.o.) and 70% with Male Sprague Dawley rats [2] (po, 1 h, 100 mg/kg p.o., 10% Solutol, pretreatment 1 hr, CO2H form, read-out: Percent Inhibition).

(Values after patent publication US9434711B2 (Janssen Pharmaceutica, NV, priority 2007, dated 2016).)
